Measured values as given in patent US9708314B2, “Heterocyclic amide compound” (NISSAN CHEMICAL INDUSTRIES, LTD., priority 2013, dated 2017).

What was measured:
Format in all cases: in vivo
[1] = tested on: Lolium multiflorum Lam.; experiment: Test Example 4: herbicidal effect by application to foliage (diluvial soil, plastic box); conditions: foliage application, 320 g/ha
Outline: (§1)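 Emulsion-formulated compound, diluted to a predetermined g/ha dose, applied by small sprayer to leaves and stems of 14-day-old seedlings grown in sterilized diluvial soil. Effect rated on 0–5 herbicidal-ratio scale three weeks on.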

[2] = tested on: Galium spurium; experiment: as above; conditions: foliage application, 320 g/ha
Outline: as §1

[3] = tested on: Abutilon theophrasti; experiment: as above; conditions: foliage application, 320 g/ha
Outline: as §1

[4] = tested on: Chenopodium album; experiment: as above; conditions: foliage application, 320 g/ha
Outline: as §1

[5] = tested on: Amaranthus retroflexus; experiment: as above; conditions: foliage application, 320 g/ha
Outline: as §1

[6] = tested on: Veronica persica; experiment: as above; conditions: foliage application, 320 g/ha
Outline: as §1

[7] = tested on: Apera spica-venti.; experiment: as above; conditions: foliage application, 320 g/ha
Outline: as §1

[8] = tested on: Echinochloa crus-galli var. crus-galli; experiment: as above; conditions: foliage application, 320 g/ha
Outline: as §1

[9] = tested on: Stellaria media; experiment: as above; conditions: foliage application, 320 g/ha
Outline: as §1

[10] = tested on: Alopecurus myosuroides; experiment: as above; conditions: foliage application, 320 g/ha
Outline: as §1

[11] = tested on: Setaria viridis; experiment: as above; conditions: foliage application, 320 g/ha
Outline: as §1

[12] = tested on: Digitaria ciliaris; experiment: as above; conditions: foliage application, 320 g/ha
Outline: as §1

[13] = tested on: Avena fatua; experiment: as above; conditions: foliage application, 320 g/ha
Outline: as §1

[14] = tested on: Leptochloa chinensis; experiment: Test Example 3: herbicidal effect by application to foliage (Wagner pot, water depth 0.1-0.5 cm); conditions: Nineteenth Table; application to foliage; application herbicide amount 320 g/ha
Outline: (§2)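 Foliar spray, 14-day-old plants, emulsion diluted to target g/ha; rated 3 wk post-application, 0–5 scale (0 ≤5%, 5 ≥90% herbicidal ratio). Greenhouse 25–30 °C, alluvial soil.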

[15] = tested on: Cyperus difformis; experiment: as above; conditions: Nineteenth Table; application to foliage; application herbicide amount 320 g/ha
Outline: as §2

[16] = tested on: Echinochloa crus-galli var. crus-galli; experiment: as above; conditions: Nineteenth Table; application to foliage; application herbicide amount 320 g/ha
Outline: as §2

[17] = tested on: directly sowed Oryza sativa; experiment: Test Example 3: effect on crop by application to foliage (Wagner pot, water depth 0.1-0.5 cm); conditions: Nineteenth Table; application to foliage; application herbicide amount 320 g/ha
Outline: as §2

SMILES | K (Lolium multiflorum Lam.) herbicidal effect grade [1] | Q (Galium spurium) herbicidal effect grade [2] | M (Abutilon theophrasti) herbicidal effect grade [3] | O (Chenopodium album) herbicidal effect grade [4] | N (Amaranthus retroflexus) herbicidal effect grade [5] | R (Veronica persica) herbicidal effect grade [6] | L (Apera spica-venti.) herbicidal effect grade [7] | H (Echinochloa crus-galli var. crus-galli) herbicidal effect grade [8] | P (Stellaria media) herbicidal effect grade [9] | J (Alopecurus myosuroides) herbicidal effect grade [10] | G (Setaria viridis) herbicidal effect grade [11] | F (Digitaria ciliaris) herbicidal effect grade [12] | I (Avena fatua) herbicidal effect grade [13] | D (herbicidal effect grade) [14] | E (herbicidal effect grade) [15] | H (herbicidal effect grade) [16] | b (effect on crop grade) [17]
COCCn1nnnc1NC(=O)c1ccc(C(F)(F)F)n2c(C(C)C)nnc12 [2-041] | 3 (Herbicidal ratio of 40% or more and less than 70%) | 4 (Herbicidal ratio of 70% or more and less than 90%) | 5 (Herbicidal ratio of 90% or more (almost completely withered)) | 5 (Herbicidal ratio of 90% or more (almost completely withered)) | 4 (Herbicidal ratio of 70% or more and less than 90%) | 4 (Herbicidal ratio of 70% or more and less than 90%) | 4 (Herbicidal ratio of 70% or more and less than 90%) | 5 (Herbicidal ratio of 90% or more (almost completely withered)) | 5 (Herbicidal ratio of 90% or more (almost completely withered)) | 3 (Herbicidal ratio of 40% or more and less than 70%) | 3 (Herbicidal ratio of 40% or more and less than 70%) | 4 (Herbicidal ratio of 70% or more and less than 90%) | 3 (Herbicidal ratio of 40% or more and less than 70%) | 5 (Herbicidal ratio of 90% or more (almost completely withered)) | 5 (Herbicidal ratio of 90% or more (almost completely withered)) | 5 (Herbicidal ratio of 90% or more (almost completely withered)) | 3 (Herbicidal ratio of 40% or more and less than 70%)
Cc1ccc(-c2nnc3c(C(=O)Nc4nnnn4C)ccc(C(F)(F)F)n23)cc1 [2-042] | 1 (Herbicidal ratio of 5% or more and less than 20%) | 1 (Herbicidal ratio of 5% or more and less than 20%) | 5 (Herbicidal ratio of 90% or more (almost completely withered)) | 5 (Herbicidal ratio of 90% or more (almost completely withered)) | 5 (Herbicidal ratio of 90% or more (almost completely withered)) | 5 (Herbicidal ratio of 90% or more (almost completely withered)) | 0 (Herbicidal ratio of 5% or less (almost no effect)) | 5 (Herbicidal ratio of 90% or more (almost completely withered)) | 3 (Herbicidal ratio of 40% or more and less than 70%) | 2 (Herbicidal ratio of 20% or more and less than 40%) | 5 (Herbicidal ratio of 90% or more (almost completely withered)) | 5 (Herbicidal ratio of 90% or more (almost completely withered)) | 2 (Herbicidal ratio of 20% or more and less than 40%) | 5 (Herbicidal ratio of 90% or more (almost completely withered)) | 5 (Herbicidal ratio of 90% or more (almost completely withered)) | 5 (Herbicidal ratio of 90% or more (almost completely withered)) | 5 (Herbicidal ratio of 90% or more (almost completely withered))
Cn1nnnc1NC(=O)c1ccc(C(F)(F)F)n2c(-c3ccc(F)cc3)nnc12 [2-043] | 2 (Herbicidal ratio of 20% or more and less than 40%) | 4 (Herbicidal ratio of 70% or more and less than 90%) | 5 (Herbicidal ratio of 90% or more (almost completely withered)) | 5 (Herbicidal ratio of 90% or more (almost completely withered)) | 5 (Herbicidal ratio of 90% or more (almost completely withered)) | 5 (Herbicidal ratio of 90% or more (almost completely withered)) | 4 (Herbicidal ratio of 70% or more and less than 90%) | 5 (Herbicidal ratio of 90% or more (almost completely withered)) | 5 (Herbicidal ratio of 90% or more (almost completely withered)) | 3 (Herbicidal ratio of 40% or more and less than 70%) | 4 (Herbicidal ratio of 70% or more and less than 90%) | 5 (Herbicidal ratio of 90% or more (almost completely withered)) | 4 (Herbicidal ratio of 70% or more and less than 90%) | 5 (Herbicidal ratio of 90% or more (almost completely withered)) | 5 (Herbicidal ratio of 90% or more (almost completely withered)) | 5 (Herbicidal ratio of 90% or more (almost completely withered)) | 5 (Herbicidal ratio of 90% or more (almost completely withered))
COc1cccc(-c2nnc3c(C(=O)Nc4nnnn4C)ccc(C(F)(F)F)n23)c1 [2-044] | 2 (Herbicidal ratio of 20% or more and less than 40%) | 3 (Herbicidal ratio of 40% or more and less than 70%) | 5 (Herbicidal ratio of 90% or more (almost completely withered)) | 5 (Herbicidal ratio of 90% or more (almost completely withered)) | 5 (Herbicidal ratio of 90% or more (almost completely withered)) | 5 (Herbicidal ratio of 90% or more (almost completely withered)) | 3 (Herbicidal ratio of 40% or more and less than 70%) | 5 (Herbicidal ratio of 90% or more (almost completely withered)) | 4 (Herbicidal ratio of 70% or more and less than 90%) | 2 (Herbicidal ratio of 20% or more and less than 40%) | 4 (Herbicidal ratio of 70% or more and less than 90%) | 5 (Herbicidal ratio of 90% or more (almost completely withered)) | 2 (Herbicidal ratio of 20% or more and less than 40%) | 5 (Herbicidal ratio of 90% or more (almost completely withered)) | 5 (Herbicidal ratio of 90% or more (almost completely withered)) | 5 (Herbicidal ratio of 90% or more (almost completely withered)) | 5 (Herbicidal ratio of 90% or more (almost completely withered))
COc1ccccc1-c1nnc2c(C(=O)Nc3nnnn3C)ccc(C(F)(F)F)n12 [2-045] | 1 (Herbicidal ratio of 5% or more and less than 20%) | 3 (Herbicidal ratio of 40% or more and less than 70%) | 5 (Herbicidal ratio of 90% or more (almost completely withered)) | 5 (Herbicidal ratio of 90% or more (almost completely withered)) | 5 (Herbicidal ratio of 90% or more (almost completely withered)) | 5 (Herbicidal ratio of 90% or more (almost completely withered)) | 3 (Herbicidal ratio of 40% or more and less than 70%) | 5 (Herbicidal ratio of 90% or more (almost completely withered)) | 5 (Herbicidal ratio of 90% or more (almost completely withered)) | 1 (Herbicidal ratio of 5% or more and less than 20%) | 4 (Herbicidal ratio of 70% or more and less than 90%) | 5 (Herbicidal ratio of 90% or more (almost completely withered)) | 2 (Herbicidal ratio of 20% or more and less than 40%) | 5 (Herbicidal ratio of 90% or more (almost completely withered)) | 5 (Herbicidal ratio of 90% or more (almost completely withered)) | 5 (Herbicidal ratio of 90% or more (almost completely withered)) | 5 (Herbicidal ratio of 90% or more (almost completely withered))
